Measurements as given in the NIST ThermoML archive (doi:10.1021/acs.jced.8b00229).

Settings: Liquid, Vibrating tube method

C=CCCC [1-pentene]
Settings | mass density [kg/m3]
283.48 K, 100 kPa | 650.3
283.48 K, 500 kPa | 650.8
283.48 K, 1000 kPa | 651.6
283.48 K, 3000 kPa | 654
283.48 K, 70000 kPa | 708.8
283.48 K, 80000 kPa | 714.8
283.49 K, 5000 kPa | 656.3
283.49 K, 10000 kPa | 661.8
283.49 K, 15000 kPa | 666.9
283.49 K, 20000 kPa | 671.7
283.49 K, 25000 kPa | 676.2
283.49 K, 30000 kPa | 680.4
283.49 K, 35000 kPa | 684.5
283.49 K, 40000 kPa | 688.4
283.49 K, 45000 kPa | 692.1
283.49 K, 50000 kPa | 695.7
283.49 K, 55000 kPa | 699.1
283.49 K, 60000 kPa | 702.5
283.49 K, 90000 kPa | 720.4
283.49 K, 100000 kPa | 725.7
293.42 K, 100 kPa | 640.1
293.42 K, 500 kPa | 640.7
293.42 K, 1000 kPa | 641.4
293.42 K, 3000 kPa | 644
293.42 K, 5000 kPa | 646.5
293.42 K, 10000 kPa | 652.4
293.42 K, 40000 kPa | 680.8
293.42 K, 55000 kPa | 692
293.42 K, 60000 kPa | 695.5
293.42 K, 70000 kPa | 702.2
293.42 K, 80000 kPa | 708.3
293.42 K, 90000 kPa | 714.1
293.42 K, 100000 kPa | 719.6
293.43 K, 15000 kPa | 657.9
293.43 K, 20000 kPa | 663
293.43 K, 25000 kPa | 667.8
293.43 K, 35000 kPa | 676.7
293.43 K, 45000 kPa | 684.7
293.43 K, 50000 kPa | 688.4
293.44 K, 30000 kPa | 672.3
303.33 K, 100 kPa | 629.8
303.33 K, 1000 kPa | 631.1
303.33 K, 3000 kPa | 634
303.33 K, 35000 kPa | 668.9
303.34 K, 5000 kPa | 636.7
303.34 K, 10000 kPa | 643.1
303.34 K, 15000 kPa | 649
303.34 K, 20000 kPa | 654.5
303.34 K, 25000 kPa | 659.6
303.34 K, 30000 kPa | 664.4
303.34 K, 40000 kPa | 673.2
303.34 K, 45000 kPa | 677.3
303.34 K, 50000 kPa | 681.2
303.34 K, 80000 kPa | 702
303.34 K, 90000 kPa | 707.9
303.35 K, 55000 kPa | 685
303.35 K, 60000 kPa | 688.6
303.35 K, 70000 kPa | 695.6
303.35 K, 100000 kPa | 713.6
313.27 K, 500 kPa | 620.4
313.27 K, 3000 kPa | 624.5
313.27 K, 5000 kPa | 627.5
313.27 K, 10000 kPa | 634.4
313.28 K, 1000 kPa | 621.3
313.28 K, 15000 kPa | 640.8
313.28 K, 20000 kPa | 646.7
313.28 K, 25000 kPa | 652.1
313.28 K, 30000 kPa | 657.2
313.28 K, 45000 kPa | 670.8
313.28 K, 50000 kPa | 674.9
313.28 K, 70000 kPa | 689.9
313.29 K, 35000 kPa | 661.9
313.29 K, 40000 kPa | 666.6
313.29 K, 55000 kPa | 678.8
313.29 K, 60000 kPa | 682.6
313.29 K, 80000 kPa | 696.4
313.29 K, 90000 kPa | 702.6
313.29 K, 100000 kPa | 708.4
323.18 K, 500 kPa | 608.6
323.18 K, 1000 kPa | 609.3
323.18 K, 3000 kPa | 612.8
323.18 K, 5000 kPa | 616.1
323.19 K, 10000 kPa | 623.7
323.19 K, 15000 kPa | 630.6
323.19 K, 20000 kPa | 636.9
323.19 K, 25000 kPa | 642.7
323.19 K, 30000 kPa | 648.1
323.19 K, 35000 kPa | 653.1
323.19 K, 40000 kPa | 657.9
323.19 K, 45000 kPa | 662.4
323.19 K, 50000 kPa | 666.7
323.19 K, 55000 kPa | 670.8
323.19 K, 60000 kPa | 674.7
323.19 K, 70000 kPa | 682.2
323.19 K, 80000 kPa | 689.1
323.19 K, 90000 kPa | 695.4
323.19 K, 100000 kPa | 701.5
333.04 K, 500 kPa | 597.2
333.04 K, 1000 kPa | 598.1
333.04 K, 3000 kPa | 601.9
333.04 K, 5000 kPa | 605.6
333.04 K, 10000 kPa | 613.9
333.05 K, 15000 kPa | 621.4
333.05 K, 20000 kPa | 628.1
333.05 K, 25000 kPa | 634.3
333.05 K, 30000 kPa | 640
333.05 K, 35000 kPa | 645.3
333.05 K, 40000 kPa | 650.4
333.05 K, 45000 kPa | 655.1
333.05 K, 50000 kPa | 659.6
333.05 K, 55000 kPa | 663.9
333.05 K, 60000 kPa | 668
333.05 K, 70000 kPa | 675.8
333.05 K, 100000 kPa | 695.8
333.06 K, 80000 kPa | 683
333.06 K, 90000 kPa | 689.6
342.94 K, 500 kPa | 585.8
342.94 K, 1000 kPa | 586.8
342.94 K, 90000 kPa | 684
342.95 K, 3000 kPa | 591.2
342.95 K, 5000 kPa | 595.3
342.95 K, 10000 kPa | 604.4
342.95 K, 70000 kPa | 669.9
342.95 K, 80000 kPa | 677.2
342.95 K, 100000 kPa | 690.4
342.96 K, 15000 kPa | 612.5
342.96 K, 20000 kPa | 619.8
342.96 K, 25000 kPa | 626.3
342.96 K, 30000 kPa | 632.4
342.96 K, 35000 kPa | 638.1
342.96 K, 40000 kPa | 643.4
342.96 K, 45000 kPa | 648.4
342.96 K, 50000 kPa | 653
342.96 K, 55000 kPa | 657.5
342.96 K, 60000 kPa | 661.8
352.82 K, 500 kPa | 574.2
352.82 K, 1000 kPa | 575.6
352.82 K, 3000 kPa | 580.5
352.82 K, 5000 kPa | 585.1
352.82 K, 10000 kPa | 595.2
352.83 K, 15000 kPa | 603.9
352.83 K, 20000 kPa | 611.7
352.83 K, 25000 kPa | 618.7
352.83 K, 30000 kPa | 625.2
352.83 K, 35000 kPa | 631.2
352.83 K, 40000 kPa | 636.7
352.83 K, 45000 kPa | 641.9
352.83 K, 50000 kPa | 646.9
352.83 K, 55000 kPa | 651.5
352.83 K, 70000 kPa | 664.3
352.83 K, 80000 kPa | 671.9
352.83 K, 90000 kPa | 679
352.83 K, 100000 kPa | 685.6
352.84 K, 60000 kPa | 655.9
362.67 K, 500 kPa | 560.5
362.67 K, 1000 kPa | 561.8
362.67 K, 3000 kPa | 567.4
362.67 K, 80000 kPa | 664.9
362.67 K, 100000 kPa | 679
362.68 K, 5000 kPa | 572.6
362.68 K, 10000 kPa | 583.8
362.68 K, 15000 kPa | 593.3
362.68 K, 20000 kPa | 601.7
362.68 K, 25000 kPa | 609.2
362.68 K, 30000 kPa | 616.1
362.68 K, 35000 kPa | 622.4
362.68 K, 40000 kPa | 628.2
362.68 K, 45000 kPa | 633.7
362.68 K, 50000 kPa | 638.9
362.68 K, 55000 kPa | 643.7
362.68 K, 60000 kPa | 648.3
362.68 K, 70000 kPa | 657.1
362.68 K, 90000 kPa | 672.2
